The values that follow come from patent US20140024171A1, “PERYLENE TETRACARBOXYLIC ACID BISIMIDE DERIVATIVE, N-TYPE SEMICONDUCTOR, A METHOD FOR PRODUCING N-TYPE SEMICONDUCTOR, AND ELECTRONIC DEVICE” (NATIONAL UNIVERSITY CORPORATION KAGAWA UNIVERSITY, priority 2012, published 2014).

SMILES strings stand for the structures. “Also recorded” adds a separate entry of the source.

Data set [1] can be described thus: Charge transport properties (carrier mobility) by transient photocurrent measurement, Time-of-Flight (TOF) method. It counts as physicochemical. The note with it: for maximum electron mobility calculated by the TOF method: room temperature (25° C.), sample thickness 9 μm, applied voltage 10 V to 100 V. Here is the method:
Charge transport properties (carrier mobility properties) of the liquid crystal compound (2-1) ((2), m=1, n=1) obtained in Example 2 were measured by a Time-of-Flight (TOF) method. In this method, while a DC voltage was applied to a sandwich-type sample (liquid crystal cell produced in Example 4) having photoconductivity, the sample was irradiated with a pulse laser to cause photocarriers to be generated on one side of the sample, and a change in displacement current (transient photocurrent) induced in an external circuit when the carriers transited in the sample over time was measured. A constant current was generated by the transit of photocarriers, and when the carriers reached the counter electrode, the current was decayed to 0. The time from a start of decay in transient photocurrent to 0 corresponds to the time required for the carriers to transit in the sample (transit time). When the thickness of the sample is represented by d (cm), an applied voltage is represented by V (volt), and the transit time is represented by tT, mobility p (cm^2/Vs) is represented by the following mathematical expression. When an electrode on the irradiation side is biased to positive, mobility of positive carriers is determined, and when an electrode on the irradiation side is biased to negative, mobility of negative carriers is determined.
The measurement by a Time-of-Flight method was performed as follows. That is, while a voltage was applied to the liquid crystal cell produced in Example 4 at room temperature, the liquid crystal cell was irradiated with a pulse laser (Nd: YAG laser, THG: wavelength of 356 nm, pulse width of 1 ns), and a displacement current induced at the time of the irradiation was measured with a digital oscilloscope. […] In FIG. 7, the horizontal axis indicates time (μs), and the vertical axis indicates a photocurrent (μA). The present sample has favorable photoconductivity, and thus, sufficiently strong current signal could be obtained. […] According to the measurement result, the mobility of negative carriers reached maximum at 1×10^−3 cm^2/Vs at 30° C. This value is higher by an order of magnitude than the mobility of a conjugate polymer-fullerene derivative composite generally used in a bulk hetero junction-type organic thin-film solar battery.
Charge transport properties (carrier mobility properties) of the liquid crystal compound (2-44) ((2), m=0, n=1)) were measured through transient photocurrent measurement by a Time-of-Flight method using the liquid crystal cell produced in Example 8. The transient photocurrent measurement by a Time-of-Flight method was performed in the same manner as in the measurement of charge transport properties (carrier mobility properties) of the liquid crystal compound (2-1) ((2), m=1, n=1). The thickness of a sample of the liquid crystal compound (2-44) ((2), m=0, n=1)) was 25 μm. The measurement temperature was 40° C., and the measurement was performed while changing an applied voltage from 10 V to 100 V by 10 V increments. The graphs of FIGS. 11A and 11B show the results of the measurement. In FIGS. 11A and 11B, the horizontal axis indicates time (μs), and the vertical axis indicates a photocurrent (μA). As shown in FIGS. 11A and 11B, in the same time of flight, the higher the applied voltage was, the higher the photocurrent flowed.
In addition, the same measurement as in FIGS. 11A and 11B was performed with a change in measurement temperature from 25° C. to 130° C. The result of the measurement is shown in a graph of FIG. 12A. In FIG. 12A, the horizontal axis indicates an electric field strength (10^4 V/cm), and the vertical axis indicates carrier mobility (cm^2/Vs). […] Thus, the vertical axis (carrier mobility) is equal to electron mobility.
A result of the measurement at an electric field strength of 4.0×10^4 V/cm in FIG. 12A is shown in a graph of FIG. 12B as a function of time and electron mobility. […]

Data set [2] can be described thus: Solubility in organic solvents. It counts as physicochemical. The method, then: Thus, the liquid crystal compound (1-1) can be formed into a film by a spin coating method using a solution in any of these solvents. The film formation was performed as follows in the present example.
Thus, the liquid crystal compound (2-1) can be formed into a film by a spin coating method using a solution in any of these solvents. The film formation was performed as follows in the present example.

As for `C[Si](C)(C)O[Si](C)(C)O[Si](C)(C)CCCCC(CCCC[Si](C)(C)O[Si](C)(C)O[Si](C)(C)C)Oc1ccc(N2C(=O)c3ccc4c5ccc6c7c(ccc(c8ccc(c3c48)C2=O)c75)C(=O)N(c2ccc(OC(CCCC[Si](C)(C)O[Si](C)(C)O[Si](C)(C)C)CCCC[Si](C)(C)O[Si](C)(C)O[Si](C)(C)C)cc2)C6=O)cc1` [Compound (5-1), N—N′-bis(4-(1,9,-di(1,1,1,3,3,5,5-heptamethyltrisiloxanyl)nonane-5-yloxy)phenyl)perylene-3,4,9,10-tetracarboxylic acid bisimide], the “maximum electron mobility calculated by the TOF method” value in data set [1] is on record as 1×10^−4 cm/Vs.
`C[Si](C)(C)O[Si](C)(C)O[Si](C)(C)CCCCC(CCCC[Si](C)(C)O[Si](C)(C)O[Si](C)(C)C)N1C(=O)c2ccc3c4ccc5c6c(ccc(c7ccc(c2c37)C1=O)c64)C(=O)N(C(CCCC[Si](C)(C)O[Si](C)(C)O[Si](C)(C)C)CCCC[Si](C)(C)O[Si](C)(C)O[Si](C)(C)C)C5=O` [Compound (2-1), perylene tetracarboxylic acid bis{di-(1,1,1,3,3,5,5-heptamethyltrisiloxanylbutyl)-methylimide}]: the “solubility in organic solvents” value in data set [2] is “soluble in ethyl acetate, acetone, cyclohexane, and the like in addition to toluene, chlorobenzene, tetrahydrofuran, chloroform, dichloromethane, and the like; also recorded: high solubility in various organic solvents”.
The same measure, in the same setting: then `C[Si](C)(C)O[Si](C)(C)O[Si](C)(C)CCCN1C(=O)c2ccc3c4ccc5c6c(ccc(c7ccc(c2c37)C1=O)c64)C(=O)N(CCC[Si](C)(C)O[Si](C)(C)O[Si](C)(C)C)C5=O` [Compound (1-1), perylene tetracarboxylic acid bis(1,1,1,3,3,5,5-heptamethyltrisiloxanylpropylimide)], with “soluble in toluene, chlorobenzene, tetrahydrofuran, chloroform, dichloromethane, and the like; also recorded: high solubility in various organic solvents”.
In the case of `C[Si](C)(C)O[Si](C)(C)CCCCC(CCCC[Si](C)(C)O[Si](C)(C)C)N1C(=O)c2ccc3c4ccc5c6c(ccc(c7ccc(c2c37)C1=O)c64)C(=O)N(C(CCCC[Si](C)(C)O[Si](C)(C)C)CCCC[Si](C)(C)O[Si](C)(C)C)C5=O` [Compound (2-44)], the “electron mobility relative to the maximum electron mobility of liquid crystal compound (2-1)” value in data set [1] was 100 times higher. Also, in data set [1] (40° C., electric field strength 4.0×10^4 V/cm, sample thickness 25 μm), the maximum electron mobility is 1.2×10^−1 cm^2/Vs. Further, in data set [1] (temperature increased to 130° C.), the “electron mobility at 130° C. relative to the electron mobility at 40° C.” value is recorded as “about a half”.
In the case of `C=CCN1C(=O)c2ccc3c4ccc5c6c(ccc(c7ccc(c2c37)C1=O)c64)C(=O)N(CC=C)C5=O` [Compound (6), perylene tetracarboxylic acid bis(allylimide)], the “solubility in organic solvents” value in data set [2] was “barely dissolved in an organic solvent”.
Regarding `C[Si](C)(C)O[Si](C)(C)CCCCCCC(CCCCCC[Si](C)(C)O[Si](C)(C)C)N1C(=O)c2ccc3c4ccc5c6c(ccc(c7ccc(c2c37)C1=O)c64)C(=O)N(C(CCCCCC[Si](C)(C)O[Si](C)(C)C)CCCCCC[Si](C)(C)O[Si](C)(C)C)C5=O` [Compound (2-46)], in data set [1], the “electron mobility relative to the maximum electron mobility of liquid crystal compound (2-1)” value was “about 10 times higher” and the “maximum electron mobility calculated by the TOF method” value is reported as 1×10^−2 cm/Vs.
